Measurements as given in PubChem BioAssay AID1919001 (Molecular Pharmacology Branch, DTP, NCI, 2023).
“And” between values parts separate entries of the source, which are not always exact repeats. Equal entries are not always repeated.

Tested on: 699152-130-R-J1-PDC complex spheroid growth
Experiment: Anticancer human tumor 699152-130-R-J1-PDC patient-derived pancreatic carcinoma cell line growth inhibition [AhR]
Details: for viability, T/C: stronger effect = lower value
Summary of the method: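 Complex tumor spheroids co-cultured with HUVEC and human MSC stroma; AhR antagonists tested in combination with standard-of-care and investigational agents. Top concentration at or near clinical Cmax (else 10 microM), half-log dilutions; growth expressed as percent test/control.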

[1] = curve of first compound, second compound 0.1 µM
[2] = curve of first compound, second compound 0.316 µM
[3] = curve of first compound, second compound 1 µM
[4] = curve of first compound, second compound 3.16 µM
[5] = curve of first compound, second compound 10 µM
[6] = second compound 0.1 µM, first compound 0.0316 µM
[7] = second compound 0.1 µM, first compound 0.1 µM
[8] = second compound 0.1 µM, first compound 0.316 µM
[9] = second compound 0.1 µM, first compound 1 µM
[10] = second compound 0.1 µM, first compound 3.16 µM
[11] = second compound 0.1 µM, first compound 10 µM
[12] = second compound 0.316 µM, first compound 0.0316 µM
[13] = second compound 0.316 µM, first compound 0.1 µM
[14] = second compound 0.316 µM, first compound 0.316 µM
[15] = second compound 0.316 µM, first compound 1 µM
[16] = second compound 0.316 µM, first compound 3.16 µM
[17] = second compound 0.316 µM, first compound 10 µM
[18] = second compound 1 µM, first compound 0.0316 µM
[19] = second compound 1 µM, first compound 0.1 µM
[20] = second compound 1 µM, first compound 0.316 µM
[21] = second compound 1 µM, first compound 1 µM
[22] = second compound 1 µM, first compound 3.16 µM
[23] = second compound 1 µM, first compound 10 µM
[24] = second compound 3.16 µM, first compound 0.0316 µM
[25] = second compound 3.16 µM, first compound 0.1 µM
[26] = second compound 3.16 µM, first compound 0.316 µM
[27] = second compound 3.16 µM, first compound 1 µM
[28] = second compound 3.16 µM, first compound 3.16 µM
[29] = second compound 3.16 µM, first compound 10 µM
[30] = second compound 10 µM, first compound 0.0316 µM
[31] = second compound 10 µM, first compound 0.1 µM
[32] = second compound 10 µM, first compound 0.316 µM
[33] = second compound 10 µM, first compound 1 µM
[34] = second compound 10 µM, first compound 3.16 µM
[35] = second compound 10 µM, first compound 10 µM
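Also: compound exposure lasted 7 days after spheroids had grown for 3 days.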

SMILES	IC50 [1] [nM]	IC50 [2] [nM]	IC50 [3] [nM]	IC50 [4] [nM]	IC50 [5] [nM]	viability, T/C [6] [%]	viability, T/C [7] [%]	viability, T/C [8] [%]	viability, T/C [9] [%]	viability, T/C [10] [%]	viability, T/C [11] [%]	viability, T/C [12] [%]	viability, T/C [13] [%]	viability, T/C [14] [%]	viability, T/C [15] [%]	viability, T/C [16] [%]	viability, T/C [17] [%]	viability, T/C [18] [%]	viability, T/C [19] [%]	viability, T/C [20] [%]	other results
O=C(c1cc(Cc2n[nH]c(=O)c3ccccc23)ccc1F)N1CCN(C(=O)C2CC2)CC1 + Cc1ccccc1N=Nc1ccc(NC(=O)c2ccnn2C)c(C)c1	> 10000	> 10000	> 10000	> 10000	> 10000	90.3	92.8	109	101	97.2	78.5	89.6	84.2	109	90	83.5	85.2	106	105	90.4	viability, T/C [21]: 93.8%; viability, T/C [22]: 88.6%; viability, T/C [23]: 85.5%; viability, T/C [24]: 114%; viability, T/C [25]: 99.3%; viability, T/C [26]: 104%; viability, T/C [27]: 94.1%; viability, T/C [28]: 81.1%; viability, T/C [29]: 83.1%; viability, T/C [30]: 123%; viability, T/C [31]: 121%; viability, T/C [32]: 109%; viability, T/C [33]: 89.3%; viability, T/C [34]: 94%; viability, T/C [35]: 85.7%
NS(=O)(=O)OCC1CC(n2ccc3c(NC4CCc5ccccc54)ncnc32)CC1O (centres undefined)	–	–	–	–	–	–	–	–	–	–	–	–	–	–	–	–	–	–	–	–	viability, T/C (compound 0.0316 µM): 96.1% and 125% and 117%; viability, T/C (compound 0.1 µM): 123% and 111% and 125%; viability, T/C (compound 0.316 µM): 127% and 113% and 129%; viability, T/C (compound 1 µM): 67.1% and 38% and 43.2%; viability, T/C (compound 3.16 µM): 18.2% and 19.7% and 24.9%; viability, T/C (compound 10 µM): 20.3% and 24% and 29.6%; IC50 (curve of compound): 1510 nM and 832 nM and 802 nM
COc1cccc2c1C(=O)c1c(O)c3c(c(O)c1C2=O)CC(O)(C(=O)CO)CC3OC1CC(N)C(O)C(C)O1 (centres undefined)	–	–	–	–	–	–	–	–	–	–	–	–	–	–	–	–	–	–	–	–	viability, T/C (compound 0.0316 µM): 71.1% and 70.4% and 82.5%; viability, T/C (compound 0.1 µM): 64.3% and 56.2% and 87.1%; viability, T/C (compound 0.316 µM): 48.5% and 41.1% and 55.1%; viability, T/C (compound 1 µM): 30.3% and 29.7% and 31.8%; viability, T/C (compound 3.16 µM): 3.77% and 2.01% and 2.55%; viability, T/C (compound 10 µM): 8.13% and 7.62% and 11.8%; IC50 (curve of compound): 319 nM and 179 nM and 444 nM
CC1COCCN1c1cc(C2(S(C)(=N)=O)CC2)nc(-c2ccnc3[nH]ccc23)n1 (centres undefined) + Cc1cncc(-c2nc(NCCc3c[nH]c4ccccc34)c3ncn(C(C)C)c3n2)c1	> 10000	> 10000	> 10000	> 10000	< 31.6	98.9	103	113	95.9	85.3	74.8	96.5	106	114	119	95.1	77.8	117	122	126	viability, T/C [21]: 107%; viability, T/C [22]: 123%; viability, T/C [23]: 81.3%; viability, T/C [24]: 90.6%; viability, T/C [25]: 113%; viability, T/C [26]: 90.9%; viability, T/C [27]: 101%; viability, T/C [28]: 92.3%; viability, T/C [29]: 69.9%; viability, T/C [30]: 25.2%; viability, T/C [31]: 27.3%; viability, T/C [32]: 29.9%; viability, T/C [33]: 24.7%; viability, T/C [34]: 25.9%; viability, T/C [35]: 20.2%
Nc1ccn(C2OC(CO)C(O)C2(F)F)c(=O)n1 (centres undefined) + Cc1cncc(-c2nc(NCCc3c[nH]c4ccccc34)c3ncn(C(C)C)c3n2)c1	1240	1300	2510	864	< 31.6	76.3	69.2	62.3	49.4	46.6	42.8	81.3	63.6	56.8	56.1	45.3	40.6	72.6	67.9	58.6	viability, T/C [21]: 53.8%; viability, T/C [22]: 50.5%; viability, T/C [23]: 43.8%; viability, T/C [24]: 74.7%; viability, T/C [25]: 71.1%; viability, T/C [26]: 55.6%; viability, T/C [27]: 50.8%; viability, T/C [28]: 45.4%; viability, T/C [29]: 49.8%; viability, T/C [30]: 47.8%; viability, T/C [31]: 50.9%; viability, T/C [32]: 40.5%; viability, T/C [33]: 46%; viability, T/C [34]: 39.4%; viability, T/C [35]: 35.5%
COc1ccc([C@@H](O)c2cc(-c3ncnc4cc(N5CCOCC5)ccc34)c(F)cc2Cl)nn1 + Cc1cncc(-c2nc(NCCc3c[nH]c4ccccc34)c3ncn(C(C)C)c3n2)c1	6290	5200	7450	4640	< 31.6	100	104	89.4	78.9	65.4	40.1	95	102	89.2	84.4	59.7	36.8	104	103	109	viability, T/C [21]: 91%; viability, T/C [22]: 76.2%; viability, T/C [23]: 41.2%; viability, T/C [24]: 55.6%; viability, T/C [25]: 66%; viability, T/C [26]: 60.6%; viability, T/C [27]: 59.8%; viability, T/C [28]: 54.3%; viability, T/C [29]: 40.2%; viability, T/C [30]: 4.98%; viability, T/C [31]: 5.41%; viability, T/C [32]: 4.5%; viability, T/C [33]: 6.28%; viability, T/C [34]: 6.8%; viability, T/C [35]: 9.11%
